Laboratory results: ChEMBL document CHEMBL1201862, “PubChem BioAssay data set” (2004)
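Values below derive from 48-hour exposures of cells grown in 96-well plates, with endpoints linearly interpolated between the two concentrations bracketing the appropriate inhibition level. GI50 marks 50% less growth.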 Activity calls are given as the source filed them. Rule as the data show it: active = GI50 up to about 1.1 µM and inactive = higher.

Columns and labels:
Assay in all cases: NCI-60 cell line screen, 48 h
NCI-H460 = system: NCI-H460
DU-145 = system: DU-145
NCI-H23 = system: NCI-H23
SNB-19 = system: SNB-19
Malme-3M = system: Malme-3M
OVCAR-8 = system: OVCAR-8
SF-295 = system: SF-295
SN12C = system: SN12C
UO-31 = system: UO-31
NCI-H522 = system: NCI-H522
A549 = system: A549
HT-29 = system: HT-29
KM12 = system: KM12
786-0 = system: 786-0
RXF 393 = system: RXF 393
MDA-MB-231 = system: MDA-MB-231
SK-OV-3 = system: SK-OV-3
Hs-578T = system: Hs-578T
K562 = system: K562
SW-620 = system: SW-620
HCT-15 = system: HCT-15
HL-60 = system: HL-60
CCRF-CEM = system: CCRF-CEM
MDA-MB-435 = system: MDA-MB-435
HOP-92 = system: HOP-92
EKVX = system: EKVX
SK-MEL-2 = system: SK-MEL-2
OVCAR-4 = system: OVCAR-4
MOLT-4 = system: MOLT-4
ACHN = system: ACHN
COLO 205 = system: COLO 205
SF-268 = system: SF-268
PC-3 = system: PC-3
NCI/ADR-RES = system: NCI/ADR-RES
MCF7 = system: MCF7
M14 = system: M14
HCT-116 = system: HCT-116
SK-MEL-28 = system: SK-MEL-28
RPMI-8226 = system: RPMI-8226
CAKI-1 = system: CAKI-1
HOP-62 = system: HOP-62
UACC-62 = system: UACC-62
UACC-257 = system: UACC-257
LOX IMVI = system: LOX IMVI
IGROV-1 = system: IGROV-1
SF-539 = system: SF-539
OVCAR-5 = system: OVCAR-5
U-251 = system: U-251
NCI-H226 = system: NCI-H226
T47D = system: T47D
MDA-N = system: MDA-N
SNB-75 = system: SNB-75
A498 = system: A498
HCC 2998 = system: HCC 2998
OVCAR-3 = system: OVCAR-3
SK-MEL-5 = system: SK-MEL-5
TK-10 = system: TK-10
SR = system: SR

With `CCCCCc1cc2c(cc1O)CC[C@@H]1[C@@H]2CC[C@]2(C)[C@@H](O)CC[C@@H]12` the GI50 (NCI-H460) was 17.4 µM (inactive), the GI50 (DU-145) was 16.4 µM (inactive) and the GI50 (NCI-H23) was 21.3 µM (inactive). The GI50 (SNB-19) was 18.8 µM (inactive), the GI50 (Malme-3M) was 19.1 µM (inactive) and the GI50 (OVCAR-8) was 20.1 µM (inactive). For the same compound, the GI50 (SF-295) was 13.4 µM (inactive), the GI50 (SN12C) was 16.2 µM (inactive) and the GI50 (UO-31) was 13.9 µM (inactive). The GI50 (NCI-H522) was 18.8 µM (inactive), the GI50 (A549) was 19.3 µM (inactive) and the GI50 (HT-29) was 20 µM (inactive). The GI50 (KM12) was 10.9 µM (inactive), the GI50 (786-0) was 14.8 µM (inactive) and the GI50 (RXF 393) was 19.5 µM (inactive). For the same compound, the GI50 (MDA-MB-231) was 18.4 µM (inactive), the GI50 (SK-OV-3) was 21.8 µM (inactive) and the GI50 (Hs-578T) was 19.8 µM (inactive). The GI50 (K562) was 16.7 µM (inactive), the GI50 (SW-620) was 26.4 µM (inactive) and the GI50 (HCT-15) was 15.9 µM. For the same compound, the GI50 (HL-60) was 21.3 µM (inactive), the GI50 (CCRF-CEM) was 35.3 µM (inactive) and the GI50 (MDA-MB-435) was 15.7 µM (inactive). The GI50 (HOP-92) was 14.3 µM (inactive), the GI50 (EKVX) was 17.9 µM (inactive) and the GI50 (SK-MEL-2) was 23.3 µM (inactive). For the same compound, the GI50 (OVCAR-4) was 21.6 µM (inactive), the GI50 (MOLT-4) was 24.3 µM (inactive) and the GI50 (ACHN) was 14.1 µM (inactive). The GI50 (COLO 205) was 16.1 µM (inactive), the GI50 (SF-268) was 17.7 µM (inactive) and the GI50 (PC-3) was 16.6 µM (inactive). For the same compound, the GI50 (NCI/ADR-RES) was 18.9 µM (inactive), the GI50 (MCF7) was 16.4 µM (inactive) and the GI50 (M14) was 14.9 µM (inactive). The GI50 (HCT-116) was 17.3 µM (inactive), the GI50 (SK-MEL-28) was 16.2 µM (inactive) and the GI50 (RPMI-8226) was 19.1 µM (inactive). The GI50 (CAKI-1) was 21.5 µM (inactive), the GI50 (HOP-62) was 22.4 µM (inactive) and the GI50 (UACC-62) was 19.2 µM (inactive). The GI50 (UACC-257) was 21 µM (inactive), the GI50 (LOX IMVI) was 18.2 µM (inactive) and the GI50 (IGROV-1) was 18.5 µM (inactive). The GI50 (SF-539) was 23.8 µM (inactive), the GI50 (OVCAR-5) was 18.8 µM (inactive) and the GI50 (U-251) was 17.6 µM (inactive). The GI50 (NCI-H226) was 14.5 µM (inactive), the GI50 (T47D) was 24.5 µM (inactive) and the GI50 (MDA-N) was 17.9 µM (inactive). The GI50 (SNB-75) was 13.5 µM (inactive), the GI50 (A498) was 21.4 µM (inactive) and the GI50 (HCC 2998) was 24.3 µM (inactive). For the same compound, the GI50 (OVCAR-3) was 14.3 µM (inactive), the GI50 (SK-MEL-5) was 19.8 µM (inactive) and the GI50 (TK-10) was 16.3 µM (inactive).

For `CC(=O)Oc1ccc(-c2c(OC(C)=O)c(OC(C)=O)c(-c3ccc(OC(C)=O)c(OC(C)=O)c3)c(OC(C)=O)c2OC(C)=O)cc1`, the GI50 (NCI-H460) was 40.1 µM (inactive), the GI50 (DU-145) was 16.3 µM (inactive) and the GI50 (NCI-H23) was 19 µM (inactive). For the same compound, the GI50 (SNB-19) was 15.8 µM (inactive), the GI50 (Malme-3M) was 16.1 µM (inactive) and the GI50 (OVCAR-8) was 14.6 µM (inactive). The GI50 (SF-295) was 6.03 µM (inactive), the GI50 (SN12C) was 18.8 µM (inactive) and the GI50 (UO-31) was 15.5 µM (inactive). For the same compound, the GI50 (NCI-H522) was 5.46 µM (inactive), the GI50 (A549) was 17.8 µM (inactive) and the GI50 (HT-29) was 18.2 µM (inactive). The GI50 (KM12) was 14.4 µM (inactive), the GI50 (786-0) was 16.1 µM (inactive) and the GI50 (RXF 393) was 18.2 µM (inactive). The GI50 (MDA-MB-231) was 18.6 µM (inactive), the GI50 (SK-OV-3) was 22.3 µM (inactive) and the GI50 (K562) was 21.5 µM (inactive). For the same compound, the GI50 (SW-620) was 14.9 µM (inactive), the GI50 (HCT-15) was 17.1 µM and the GI50 (HL-60) was 22.9 µM (inactive). The GI50 (CCRF-CEM) was 10.7 µM (inactive), the GI50 (MDA-MB-435) was 16.9 µM (inactive) and the GI50 (EKVX) was 0.553 µM (active). The GI50 (SK-MEL-2) was 16.1 µM (inactive), the GI50 (OVCAR-4) was 17.6 µM (inactive) and the GI50 (MOLT-4) was 20.2 µM (inactive). For the same compound, the GI50 (ACHN) was 16.4 µM (inactive), the GI50 (COLO 205) was 17.7 µM (inactive) and the GI50 (SF-268) was 17.7 µM (inactive). For the same compound, the GI50 (PC-3) was 15.9 µM (inactive), the GI50 (NCI/ADR-RES) was 39.7 µM (inactive) and the GI50 (MCF7) was 23.7 µM (inactive). The GI50 (M14) was 18.1 µM (inactive), the GI50 (HCT-116) was 18.8 µM (inactive) and the GI50 (SK-MEL-28) was 14.8 µM (inactive). For the same compound, the GI50 (RPMI-8226) was 16.3 µM (inactive), the GI50 (CAKI-1) was 21.3 µM (inactive) and the GI50 (UACC-62) was 17.8 µM (inactive). For the same compound, the GI50 (UACC-257) was 15.1 µM (inactive), the GI50 (LOX IMVI) was 16.1 µM (inactive) and the GI50 (IGROV-1) was 15.5 µM (inactive). The GI50 (SF-539) was 18.2 µM (inactive), the GI50 (OVCAR-5) was 12.5 µM (inactive) and the GI50 (U-251) was 17.5 µM (inactive). For the same compound, the GI50 (SR) was 23.9 µM (inactive), the GI50 (NCI-H226) was 17.9 µM (inactive) and the GI50 (T47D) was 10.6 µM (inactive). For the same compound, the GI50 (MDA-N) was 16.9 µM (inactive), the GI50 (SNB-75) was 13.6 µM (inactive) and the GI50 (A498) was 20.1 µM (inactive). For the same compound, the GI50 (OVCAR-3) was 15.7 µM (inactive), the GI50 (SK-MEL-5) was 11.7 µM (inactive) and the GI50 (TK-10) was 15.9 µM (inactive).
